What was measured:
[1] = tested on: K-562; test: in vitro leukemia cell growth inhibition (NCI screen)
[2] = tested on: UACC-62; test: in vitro melanoma cell growth inhibition (NCI screen)
[3] = tested on: RXF-393; test: in vitro renal cancer cell growth inhibition (NCI screen)
[4] = tested on: SK-MEL-5; test: in vitro melanoma cell growth inhibition (NCI screen)
[5] = tested on: XF-498; test: in vitro CNS cancer cell growth inhibition (NCI screen)
[6] = tested on: NCI-H23; test: in vitro non-small cell lung cancer cell growth inhibition (NCI screen)
[7] = tested on: SF-539; test: in vitro CNS cancer cell growth inhibition (NCI screen)
[8] = tested on: MALME-3M; test: in vitro melanoma cell growth inhibition (NCI screen)
[9] = tested on: UACC-257; test: as above
[10] = tested on: M19-MEL; test: as above
[11] = tested on: MOLT-4; test: in vitro leukemia cell growth inhibition (NCI screen)
[12] = tested on: SR; test: as above
[13] = tested on: HL-60(TB); test: as above
[14] = tested on: LOX1MVI; test: in vitro melanoma cell growth inhibition (NCI screen)
[15] = tested on: UO-31; test: in vitro renal cancer cell growth inhibition (NCI screen)
[16] = tested on: HCT-116; test: in vitro colon cancer cell growth inhibition (NCI screen)
[17] = tested on: SK-MEL-2; test: in vitro melanoma cell growth inhibition (NCI screen)
[18] = tested on: CCRF-CEM; test: in vitro leukemia cell growth inhibition (NCI screen)
[19] = tested on: ACHN; test: in vitro renal cancer cell growth inhibition (NCI screen)
[20] = tested on: NCI-H522; test: in vitro non-small cell lung cancer cell growth inhibition (NCI screen)
[21] = tested on: COLO-205; test: in vitro colon cancer cell growth inhibition (NCI screen)
[22] = tested on: OVCAR-3; test: in vitro ovarian cancer cell growth inhibition (NCI screen)
[23] = tested on: HCT-15; test: in vitro colon cancer cell growth inhibition (NCI screen)
[24] = tested on: HOP-92; test: in vitro non-small cell lung cancer cell growth inhibition (NCI screen)
[25] = tested on: DLD-1; test: in vitro colon cancer cell growth inhibition (NCI screen)
[26] = tested on: RPMI-8226; test: in vitro leukemia cell growth inhibition (NCI screen)
[27] = tested on: IGROV1; test: in vitro ovarian cancer cell growth inhibition (NCI screen)
[28] = tested on: OVCAR-8; test: as above
[29] = tested on: SW 620; test: in vitro colon cancer cell growth inhibition (NCI screen)
[30] = tested on: human tumor cell lines; format: cell-based; details: Homo sapiens; cancer cell panel, general / most cell lines; read-out: logGI50 values in the cancer cell line panel (converted)
[31] = tested on: SNB-75; test: in vitro CNS cancer cell growth inhibition (NCI screen)
[32] = tested on: NCI-H266; test: in vitro non-small cell lung cancer cell growth inhibition (NCI screen)
[33] = tested on: U 251; test: in vitro CNS cancer cell growth inhibition (NCI screen)
[34] = tested on: T-47D; test: in vitro breast cancer cell growth inhibition (NCI screen)
[35] = tested on: PC-3; test: in vitro prostate cancer cell growth inhibition (NCI screen)
[36] = tested on: MDA-MB-435; test: in vitro breast cancer cell growth inhibition (NCI screen)
[37] = tested on: MDA-N; test: as above
[38] = tested on: KM 12; test: in vitro colon cancer cell growth inhibition (NCI screen)
[39] = tested on: HT 29; test: as above
[40] = tested on: MCF-7; test: in vitro breast cancer cell growth inhibition (NCI screen)
[41] = tested on: M14; test: in vitro melanoma cell growth inhibition (NCI screen)
[42] = tested on: SF-268; test: in vitro CNS cancer cell growth inhibition (NCI screen)
[43] = tested on: OVCAR-4; test: in vitro ovarian cancer cell growth inhibition (NCI screen); details: OVACR-4

Compound: CCC(C)(C)NC1=C(NC(C)=O)C(=O)c2ccccc2C1=O [Compound 36]
- cytotoxicity log GI50 [1]: -4.68 M
- cytotoxicity log GI50 [2]: -4.60 M
- cytotoxicity log GI50 [3]: -4.60 M
- cytotoxicity log GI50 [4]: -4.87 M
- cytotoxicity log GI50 [5]: -4.84 M
- cytotoxicity log GI50 [6]: -4.72 M
- cytotoxicity log GI50 [7]: -4.61 M
- cytotoxicity log GI50 [8]: -4.54 M
- cytotoxicity log GI50 [9]: -4.69 M
- cytotoxicity log GI50 [10]: -4.88 M
- cytotoxicity log GI50 [11]: -4.86 M
- cytotoxicity log GI50 [12]: -4.50 M
- cytotoxicity log GI50 [13]: -4.78 M
- cytotoxicity log GI50 [14]: -4.53 M
- cytotoxicity log GI50 [15]: -4.56 M
- cytotoxicity log GI50 [16]: -4.75 M
- cytotoxicity log GI50 [17]: -4.68 M
- cytotoxicity log GI50 [18]: -4.77 M
- cytotoxicity log GI50 [19]: -4.82 M
- cytotoxicity log GI50 [20]: -4.99 M

Compound: CC(=O)NC1=C(NCC(C)(C)C)C(=O)c2ccccc2C1=O [Compound 38]
- cytotoxicity log GI50 [1]: -4.42 M
- cytotoxicity log GI50 [2]: -4.41 M
- cytotoxicity log GI50 [3]: -4.43 M
- cytotoxicity log GI50 [4]: -4.40 M
- cytotoxicity log GI50 [5]: -4.59 M
- cytotoxicity log GI50 [7]: -4.48 M
- cytotoxicity log GI50 [8]: -4.46 M
- cytotoxicity log GI50 [9]: -4.30 M
- cytotoxicity log GI50 [10]: -4.68 M
- cytotoxicity log GI50 [21]: -4.41 M
- cytotoxicity log GI50 [13]: -4.49 M
- cytotoxicity log GI50 [15]: -4.33 M
- cytotoxicity log GI50 [22]: -4.26 M
- cytotoxicity log GI50 [23]: -4.26 M
- cytotoxicity log GI50 [16]: -4.47 M
- cytotoxicity log GI50 [18]: -4.42 M
- cytotoxicity log GI50 [19]: -4.57 M
- cytotoxicity log GI50 [20]: -4.72 M

Compound: O=C(Cc1ccc(F)cc1)NC1=C(Cl)C(=O)c2ccccc2C1=O [Compound 2j]
- cytotoxicity log GI50 [24]: -5.72 M
- cytotoxicity log GI50 [25]: -5.62 M
- cytotoxicity log GI50 [26]: -7.07 M
- cytotoxicity log GI50 [3]: -5.75 M
- cytotoxicity log GI50 [5]: -5.71 M
- cytotoxicity log GI50 [6]: -5.89 M
- cytotoxicity log GI50 [7]: -5.65 M
- cytotoxicity log GI50 [8]: -5.67 M
- cytotoxicity log GI50 [12]: -6.88 M
- cytotoxicity log GI50 [13]: -7.56 M
- cytotoxicity log GI50 [27]: -5.73 M
- cytotoxicity log GI50 [23]: -5.64 M
- cytotoxicity log GI50 [28]: -5.71 M
- cytotoxicity log GI50 [19]: -5.70 M
- cytotoxicity log GI50 [29]: -5.68 M
- GI50 [30]: 25.1 to 2510 nM
- cytotoxicity log GI50 [31]: -5.66 M

Compound: O=C(NC1=C(Cl)C(=O)c2ccccc2C1=O)c1ccc(F)cc1 [Compound 2f]
- cytotoxicity log GI50 [1]: -6.04 M
- cytotoxicity log GI50 [2]: -6.55 M
- cytotoxicity log GI50 [24]: -5.79 M
- cytotoxicity log GI50 [32]: -5.96 M
- cytotoxicity log GI50 [3]: -5.90 M
- cytotoxicity log GI50 [33]: -5.73 M
- cytotoxicity log GI50 [8]: -5.82 M
- cytotoxicity log GI50 [34]: -5.72 M
- cytotoxicity log GI50 [9]: -5.71 M
- cytotoxicity log GI50 [11]: -5.65 M
- cytotoxicity log GI50 [13]: -6.47 M
- cytotoxicity log GI50 [27]: -5.77 M
- cytotoxicity log GI50 [23]: -6.27 M
- cytotoxicity log GI50 [16]: -6.34 M
- cytotoxicity log GI50 [18]: -6.10 M
- cytotoxicity log GI50 [19]: -6.03 M
- cytotoxicity log GI50 [29]: -6.11 M
- GI50 [30]: ~1000 nM
- cytotoxicity log GI50 [20]: -6.34 M
- cytotoxicity log GI50 [35]: -5.95 M

Compound: COC(=O)CCCC(=O)NC1=C(Nc2ccccc2)C(=O)c2ccccc2C1=O [Compound 52]
- cytotoxicity log GI50 [2]: -5.49 M
- cytotoxicity log GI50 [36]: -5.26 M
- cytotoxicity log GI50 [37]: -5.41 M
- cytotoxicity log GI50 [6]: -4.97 M
- cytotoxicity log GI50 [8]: -5.45 M
- cytotoxicity log GI50 [22]: -4.90 M
- cytotoxicity log GI50 [38]: -5.28 M

Compound: CCCC(=O)NC1=C(NCC)C(=O)c2ccccc2C1=O [Compound 46]
- cytotoxicity log GI50 [1]: -4.29 M
- cytotoxicity log GI50 [36]: -4.60 M
- cytotoxicity log GI50 [37]: -4.68 M
- cytotoxicity log GI50 [3]: -4.32 M
- cytotoxicity log GI50 [8]: -4.41 M
- cytotoxicity log GI50 [9]: -4.40 M
- cytotoxicity log GI50 [21]: -4.44 M
- cytotoxicity log GI50 [13]: -4.39 M
- cytotoxicity log GI50 [39]: -4.36 M
- cytotoxicity log GI50 [22]: -4.47 M
- cytotoxicity log GI50 [23]: -4.40 M
- cytotoxicity log GI50 [16]: -4.36 M
- cytotoxicity log GI50 [29]: -4.48 M
- cytotoxicity log GI50 [38]: -4.28 M
- cytotoxicity log GI50 [20]: -4.59 M
- cytotoxicity log GI50 [35]: -4.39 M

Compound: O=C(O)CCCc1nc2c(n1-c1ccccc1)C(=O)c1ccccc1C2=O [Compound 58]
- cytotoxicity log GI50 [2]: -4.48 M
- cytotoxicity log GI50 [26]: -4.39 M
- cytotoxicity log GI50 [40]: -4.49 M
- cytotoxicity log GI50 [37]: -4.36 M
- cytotoxicity log GI50 [41]: -4.72 M
- cytotoxicity log GI50 [8]: -4.67 M
- cytotoxicity log GI50 [9]: -4.48 M
- cytotoxicity log GI50 [42]: -4.42 M
- cytotoxicity log GI50 [13]: -4.43 M
- cytotoxicity log GI50 [22]: -4.47 M
- cytotoxicity log GI50 [16]: -4.31 M
- cytotoxicity log GI50 [43]: -4.62 M
- cytotoxicity log GI50 [18]: -4.39 M
- cytotoxicity log GI50 [38]: -4.50 M
- cytotoxicity log GI50 [31]: -4.36 M
- cytotoxicity log GI50 [20]: -4.85 M
